The values that follow are results of earlier work, collected in publication PMC6954965 (Neuropharmacology, 2019).

One data set addresses PICK1 PDZ domain. The following applies: binds the PDZ domain of PICK1; ref Thorsen et al., 2010.
Another data set concerns Male Sprague-Dawley rats. The following applies: administered directly into the nucleus accumbens shell; ref Schmidt et al., 2013.
Another data set addresses PSD95 tandem PDZ domains. Conditions: dimeric peptide inhibitor of PSD95 tandem PDZ domains; ref Bach et al., 2012.

pKi: −log10 of the molar value.

For orientation: pKi means the negative decadic logarithm of the Ki, by convention in mol/L. Take `CCOC(=O)NC(=O)/C(C#N)=C/c1ccc(Cl)c(Cl)c1` [FSC231]: the negative logarithm of the Ki (pKi) on PICK1 PDZ domain was 5.00. Also, the “reinstatement of cocaine seeking” value in the data set on Male Sprague-Dawley rats was “sufficient to attenuate”.
As to Tat-NPEG4(IEDTV)(2), the pKi at PSD95 tandem PDZ domains was 8.34.
